According to doi:10.64898/2025.12.18.695077v1, “Stereospecific GPG acylation by CLN8 drives BMP biosynthesis and its loss leads to Batten disease” (biorxiv, 2025):

What was measured:
[1] = molecular target: T1, CLN8 (tag-cleaved, codon-optimised human CLN8 from yeast) (Homo sapiens, UniProt Q9UBY8); experiment: cryo-EM structure, […] A; type: binding; details: covalent acyl-enzyme intermediate at H138 proposed (continuous density not resolved), CoA at the dimer interface, incubated with 100 uM
T1 construct: full-length, C-terminal 6xHis tag cut with Factor Xa; expressed in S. cerevisiae W303.1B; homodimer in LMNG; residues 1-15 and 261-286 disordered

[2] = molecular target: T1, CLN8 (tag-cleaved, codon-optimised human CLN8 from yeast); experiment: cryo-EM structure, […] A; type: binding; details: co-purified; transmembrane pocket of each monomer at the dimer interface, not the active site

SMILES: CCCCCCCC/C=C\CCCCCCCC(=O)SCCNC(=O)CCNC(=O)[C@H](O)C(C)(C)COP(=O)(O)OP(=O)(O)OC[C@H]1O[C@@H](n2cnc3c(N)ncnc32)[C@H](O)[C@@H]1OP(=O)(O)O [C18:1-CoA]
- cryo-EM structure, 2.7 A ([1]; oleoyl chain modelled in the active site): we determined cryo-EM structures of CLN8 prepared in the presence of either C18:1-CoA or C22:6-CoA

SMILES: CC/C=C\C/C=C\C/C=C\C/C=C\C/C=C\C/C=C\CCC(=O)SCCNC(=O)CCNC(=O)[C@H](O)C(C)(C)COP(=O)(O)OP(=O)(O)OC[C@H]1O[C@@H](n2cnc3c(N)ncnc32)[C@H](O)[C@@H]1OP(=O)(O)O [C22:6-CoA]
- cryo-EM structure, 2.7 A ([1]; C22:6 chain modelled in the active site): we determined cryo-EM structures of CLN8 prepared in the presence of either C18:1-CoA or C22:6-CoA

SMILES: CC(C)(COP(=O)(O)OP(=O)(O)OC[C@H]1O[C@@H](n2cnc3c(N)ncnc32)[C@H](O)[C@@H]1OP(=O)(O)O)[C@@H](O)C(=O)NCCC(=O)NCCS [CoA]
- cryo-EM structure, 3.65 A [2]: we observed two coenzyme A (CoA) molecules bound in pockets located within the transmembrane region
